Columns and labels:
[1] = test system: p21, Puma and Noxa mRNA; assay: qRT-PCR of p53 target gene mRNA; format: cell-based, human
From the text: Total RNA was isolated from cells using RNeasy mini kit (Qiagen, USA) by the recommended protocol. Reverse transcription used SuperScript II first-strand synthesis system (Invitrogen, USA) with random primers. qRT-PCR reactions used SYBR green master mix with the Real-Time PCR Detection systems (Bio-Rad, USA). Primers for qRT-PCR are (forward) 5′-[…]-3′ (SEQ ID NO: 1) and (reverse) 5′-[…]-3′ (SEQ ID NO: 2) for p53, (forward) 5′-TGTCCGTCAGAACCCATG-3′ (SEQ ID NO: 3) and (reverse) 5′-[…]-3′ (SEQ ID NO: 4) for p21, (forward) 5′-[…]-3′ (SEQ ID NO: 5) and (reverse) 5′-[…]-3′ (SEQ ID NO: 6) for Puma, (forward) 5′-[…]-3′ (SEQ ID NO: 7) and (reverse) 5′-[…]-3′ (SEQ ID NO: 8) for Noxa, (forward) 5′-CTGGGCTACACTGAGCACC-3′ (SEQ ID NO: 9) and (reverse) 5′-[…]-3′ (SEQ ID NO: 10) for Gapdh. Target gene expression levels were normalized with Gapdh.

[2] = test system: MRC-5 normal fibroblast cells; assay: CellTiter-Glo cell viability, combination with CPT-11; format: cell-based, human; conditions: for Combination index (CI): MRC, 72 hr
Description: (§1) Cells at a concentration of 5000 cells/well in 96-well plates were treated with NSC59984 or other drugs. At seventy-two hours after treatment, cells were mixed with an equal volume of CellTiter-Glo reagents (Promega, Madison, Wis.), following the manufacturer's protocol, and bioluminescence imaging was measured using the IVIS imager.
(§2) All results were obtained from triplicate experiments, unless other indicated. Statistical analyses were performed using PRISM4 Software (GraphPad Software, Inc., San Diego, Calif., USA), ANOVA and Student's t-test. Statistical significances were determined by p<0.05. Combination indices were calculated using the Chou-Talalay method with CalcuSyn software (biosoft).

[3] = test system: SW480 cancer cells; assay: as above; format: cell-based, human; conditions: for Combination index (CI): SW480, 72 hr
Description: as §1, §2

[4] = test system: Wi38 normal fibroblast cells; assay: as above; format: cell-based, human; conditions: for Combination index (CI): Wi38, 72 hr
Description: as §1, §2

[5] = test system: MRC5 normal human fibroblast cells; assay: Flow cytometry sub-G1 DNA content; format: cell-based; conditions: 50 μM, 72 hr
Description: (§3) Cells were treated with NSC59984 or other drugs. Seventy-two hours after treatment, the cells were fixed with ethanol and stained with Propidium Iodide (PI). The samples were then subjected to analysis by an Epics Elite flow cytometer to measure the DNA content of the stained cells.

[6] = test system: Wi38 normal human fibroblast cells; assay: Flow cytometry sub-G1 DNA content; format: cell-based; conditions: 50 μM, 72 hr
Description: as §3

[7] = test system: cancer cells; assay: Colony formation assay; format: cell-based, human; conditions: treated 3 days, then drug-free medium two weeks
Description: Franken N A, et al., Nat Protoc 2006; 1: 2315-9). Cancer cells were plated at 500 cells/well on 6-well plate, and then treated with NSC59984 next day. At 3 days after NSC59984 treatment, cancer cells were cultured with drug-free complete medium for two weeks with fresh medium changed every 3 days. Cells were fixed with 10% formalin and stained with 0.05% crystal violet at the end of two weeks period of cell culture.

[8] = test system: MDM2; assay: Phosphorylation Western blot; format: cell-based, human; conditions: SW480 cells
Description: Proteins were extracted from cells and electrophoresed through 4-12% SDS-PAGE then transferred to PVDF membranes. The primary antibodies indicated in the figures were incubated with the transferred PVDF in blocking buffer at 4° C. overnight. Antibody binding was detected on PVDF with appropriate IRDye-secondary antibodies (LI-COR Biosciences, USA) by the ODYSSEY infrared imaging system.

[9] = CPT-11 15 mg/ml, NSC59984 12 mM
[10] = CPT-11 15 mg/ml, NSC59984 25 mM
[11] = CPT-11 30 mg/ml, NSC59984 12 mM
[12] = CPT-11 30 mg/ml, NSC59984 25 mM
[13] = CPT-11 60 mg/ml, NSC59984 12 mM
[14] = CPT-11 60 mg/ml, NSC59984 25 mM
[15] = CPT-11 120 mg/ml, NSC59984 6 mM
[16] = CPT-11 120 mg/ml, NSC59984 12 mM
[17] = CPT-11 120 mg/ml, NSC59984 25 mM
[18] = CPT-11 15 mg/ml, NSC59984 50 mM
[19] = CPT-11 30 mg/ml, NSC59984 50 mM
[20] = CPT-11 60 mg/ml, NSC59984 50 mM
[21] = CPT-11 120 mg/ml, NSC59984 50 mM

CN1CCN(C(=O)/C=C/c2ccc([N+](=O)[O-])o2)CC1 [NSC59984, (E)-1-(4-methylpiperazin-1-yl)-3-(5-nitrofuran-2-yl)prop-2-en-1-one]
Noxa mRNA ([1]; 25 μM in HCT116 and 12 μM in p53-null HCT116 cells): slightly increased | Puma and p21 mRNA level ([1]; HCT116 and p53-null HCT116 cells): not up-regulated | mRNA levels of p21, Noxa and Puma ([1]; SW480 and DLD-1 cells, 3 hours, dose-dependent): significantly increased | Combination index (CI) ([2]; CPT-11 15 mg/ml, NSC59984 50 μM): 0.00 ± 0.00 | Combination index (CI) ([2]; CPT-11 15 mg/ml, NSC59984 6 mM): 1.06 ± 0.43 | Combination index (CI) [2, 9]: 0.91 ± 0.21 | Combination index (CI) [2, 10]: 0.54 ± 0.03 | Combination index (CI) ([2]; CPT-11 30 mg/ml, NSC59984 50 μM): 0.00 ± 0.00 | Combination index (CI) ([2]; CPT-11 30 mg/ml, NSC59984 6 mM): 0.75 ± 0.09 | Combination index (CI) [2, 11]: 0.40 ± 0.07 | Combination index (CI) [2, 12]: 0.12 ± 0.07 | Combination index (CI) ([2]; CPT-11 60 mg/ml, NSC59984 50 μM): 0.00 ± 0.00 | Combination index (CI) ([2]; CPT-11 60 mg/ml, NSC59984 6 mM): 0.49 ± 0.09 | Combination index (CI) [2, 13]: 0.08 ± 0.04 | Combination index (CI) [2, 14]: 0.00 ± 0.00 | Combination index (CI) ([2]; CPT-11 120 mg/ml, NSC59984 50 μM): 0.02 ± 0.00 | Combination index (CI) [2, 15]: 0.06 ± 0.02 | Combination index (CI) [2, 16]: 0.00 ± 0.00 | Combination index (CI) [2, 17]: 0.00 ± 0.00 | combinational treatment with CPT11 ([2]; normal fibroblast MRC5 cells): synergic activity | Combination index (CI) ([3]; CPT-11 15 mg/ml, NSC59984 6 mM): 3.01 ± 0.20 | Combination index (CI) [3, 9]: 2.02 ± 0.27 | Combination index (CI) [3, 10]: 0.66 ± 0.04 | Combination index (CI) [3, 18]: 1.00 ± 0.02 | Combination index (CI) ([3]; CPT-11 30 mg/ml, NSC59984 6 mM): 1.80 ± 0.15 | Combination index (CI) [3, 11]: 0.38 ± 0.04 | Combination index (CI) [3, 12]: 0.65 ± 0.02 | Combination index (CI) [3, 19]: 0.40 ± 0.04 | Combination index (CI) ([3]; CPT-11 60 mg/ml, NSC59984 6 mM): 0.64 ± 0.17 | Combination index (CI) [3, 13]: 0.22 ± 0.03 | Combination index (CI) [3, 14]: 0.57 ± 0.00 | Combination index (CI) [3, 20]: 0.41 ± 0.04 | Combination index (CI) [3, 15]: 0.18 ± 0.01 | Combination index (CI) [3, 16]: 0.36 ± 0.08 | Combination index (CI) [3, 17]: 0.62 ± 0.05 | Combination index (CI) [3, 21]: 0.23 ± 0.04 | cell viability, combinational treatment with CPT11 ([3]; SW480 cancer cells as compared to MRC5 and Wi38 normal cells, 72 hr): significantly reduced | combinational treatment with CPT11 ([3]; SW480 colon cancer cells): synergic activity | Combination index (CI) ([4]; CPT-11 15 mg/ml, NSC59984 6 mM): 1.50 ± 0.18 | Combination index (CI) [4, 9]: 1.45 ± 0.12 | Combination index (CI) [4, 10]: 0.88 ± 0.11 | Combination index (CI) [4, 18]: 0.03 ± 0.01 | Combination index (CI) ([4]; CPT-11 30 mg/ml, NSC59984 6 mM): 1.10 ± 0.14 | Combination index (CI) [4, 11]: 0.95 ± 0.05 | Combination index (CI) [4, 12]: 0.20 ± 0.04 | Combination index (CI) [4, 19]: 0.03 ± 0.00 | Combination index (CI) ([4]; CPT-11 60 mg/ml, NSC59984 6 mM): 0.58 ± 0.10 | Combination index (CI) [4, 13]: 0.44 ± 0.06 | Combination index (CI) [4, 14]: 0.01 ± 0.00 | Combination index (CI) [4, 20]: 0.05 ± 0.00 | Combination index (CI) [4, 15]: 0.96 ± 0.22 | Combination index (CI) [4, 16]: 0.29 ± 0.04 | Combination index (CI) [4, 17]: 0.01 ± 0.00 | Combination index (CI) [4, 21]: 0.11 ± 0.02 | combinational treatment with CPT11 ([4]; normal fibroblast Wi38 cells): synergic activity | DNA content in Sub-G1 [5]: 30% | DNA content in Sub-G1 [6]: 12% | colony numbers [7]: significantly reduced | phosphorylation of MDM2 [8]: phosphorylated at Ser166

— patent publication US10322123B2, “Compound for anti-cancer therapy that acts by targeting GOF mutant P53 and stimulates P73 to restore the P53 pathway signaling” (The Penn State Research Foundation, priority 2014, dated 2019)
